Data: patent US20010051602A1, “Methods for increasing ApoE levels for the treatment of neurodegenerative disease” (priority 1997, published 2001)
Where “and” joins values, the source holds several entries; their conditions need not be identical. Equal values may be shown once.

Key:
ApoE-knockout mice = experiment: ApoE knockout mouse transient focal ischemia stroke model; assay type: in vivo; settings: 5 mg i.p. daily for ten days, if ApoE induction is necessary for neuroprotection
Experimental: To extend these animal studies, the ApoE knockout mouse may be exploited to assess the role of ApoE in probucol-mediated neuroprotection for stroke.
This protocol is carried out as similarly described for the rat model above, with some modifications. […] On the tenth day, animals are subjected to a transient focal ischemia by intraluminal occlusion of the middle cerebral artery. Infarct volume, neurological outcome, and cerebral flow will be monitored.

Alzheimer's disease [1] = experiment: clinical trial: ADAS-Cog (70 point scale); assay type: in vivo, human
Experimental: Neuropsychological Assessment: The Alzheimer's Disease Assessment Scale, Cognitive Part (ADAS-Cog) (see Rosen et al., Am. J. Psychiatr., 141:1356-1364 (1984)) was used as an objective neuropsychological measure. It consists of a battery of neuropsychological tests for different cognitive functions. The battery comes to a single score with a maximum of 70 points and is administered in about 45 minutes to patients. A 117 point extended scale version of this test was also used (see Table 5). […] The ADAS includes both cognitive (ADAS-Cog) and non-cognitive (ADAS-Noncog) subscales and the tests components of memory, language, and behavior. […] We further assessed the cognitive functioning of these patients with the extended scale ADAS-Cog test.

Alzheimer's disease [2] = experiment: clinical trial: Clinical Impression of Change (CIBIC-Plus); assay type: in vivo, human; set-up: key to CIBIC Scores, 3 months, Average / CIBIC Scores, 6 months, Average: 7-point scale: 1 = very much improved, 4 = no change, 7 = very much worse
Experimental: Neuropsychological Assessment: The Clinical Impression of Change (CIBIC-Plus) and the Global Deterioration Scale (GDS) were recorded at 3 and 6 months. The Clinical Impression of Change (CIBIC-Plus) consists of the holistic impression by the clinician of whether the patient has shown any change since baseline as rated on a seven point sale (marked, moderate, mild improvement, no change, or marked, moderate, mild decline). The Global Deterioration Scale rates clinically identifiable stages of dementia. […] This test provides a holistic impression by the clinician of whether the patient has shown any change since baseline. The CIBIC is scored as a seven point scale, with a range from 1=“very much improved” to 4=“no change” to 7=“very much worse.” Changes in the CIBIC score have shown only weak correlation with changes in the ADAS-Cog and have been reported to be less sensitive to change than other measures. The FDA guidelines are widely interpreted as mandating the use of the CIBIC and this scale serves to measure the impact of treatment protocols on the quality of life for the patient.

cortical infarct = experiment: Wistar rat middle cerebral artery occlusion stroke model; assay type: in vivo; settings: rats dosed i.p. daily for ten days, 2 hour middle cerebral artery occlusion, 22 hours reperfusion
Experimental: In particular, the Wistar rat model may be used with modifications. Briefly, rats are dosed (i.p.) daily with probucol or a saline negative control for ten days. On the tenth day, animals are then subjected to a 2 hour reversible, middle cerebral artery occlusion. Laser-Doppler flowmetry is used to monitor the ischemic period and early reperfusion. […] We predict that the cortical infarct volumes (indicative of neuronal damage) will be less in animals treated with probucol as compared to untreated animals.

Tau protein = experiment: clinical trial: Tau protein in the CSF; assay type: in vivo, human
Description: (§1) Biological Markers: Additional biochemical markers included phenotyping of the patients ApoE and determining relative concentrations of tau protein, P-amyloid protein (1-42 and 1-40); and relative extent of lipid peroxidation.

ApoE [3] = experiment: clinical trial: ApoE levels in CSF of AD patients treated with probucol, immunoblot; assay type: in vivo, human; settings: probucol 1000 mg/day; for Average Change in ApoE (% baseline): one month of treatment, 8 patients
Experimental: Biological Marker: A lumbar puncture was performed at baseline and one month after treatment. The relative concentrations of ApoE levels in the CSF were determined by immunoblot as described by Poirer, J. et al., Neuroscience 55:81-90 (1993).
The cerebral spinal fluid (CSF) of the above subjects was analyzed for the concentration of ApoE protein by immunoblot using an internal standard. The samples for the first six patients were analyzed independently of the last two patients, thus the scales for patients 1-6 are different from the scales for patients 8 and 9.

plasma apolipoproteins = settings: cited from earlier work
ApoE [4] = experiment: in vivo effect of probucol on ApoE levels in murine tissues, immunoblot densitometry; settings: mice; for ApoE G/Dens (% Peak) / ApoE G/Dens-DD / ApoE G/DxA (% Total): pooled
Experimental: To extend the foregoing in vitro studies, the following animal study was conducted. […] At the end of ten days, the animals were sacrificed and the brain tissue collected, rapidly dissected, and the hippocampi were isolated. The livers, tissue, and blood were also collected. Tissue homogenates from all ten animals were pooled and the ApoE levels in the different tissues were determined by immunoblot.

β-amyloid protein (1-42) = experiment: clinical trial: CSF β-amyloid (1-42); assay type: in vivo, human; settings: individual AD patient
Description: as §1
Tables 11 and 12 summarize the changes in total β-amyloid protein (1-40 and 1-42) at one month, as a percentage of the baseline values.

[5] = average of patients, baseline average 28.9
[6] = individual AD patient, higher score indicates poorer performance
[7] = individual AD patient, 1 very much improved, 4 no change, 7 very much worse
[8] = Blood, 0.1 mg i.p. daily for ten days
[9] = Blood, 0.5 mg i.p. daily for ten days
[10] = Blood, 5.0 mg i.p. daily for ten days
[11] = Hippocampus, 0.1 mg i.p. daily for ten days
[12] = Hippocampus, 0.5 mg i.p. daily for ten days
[13] = Hippocampus, 5.0 mg i.p. daily for ten days
[14] = Liver, 0.1 mg i.p. daily for ten days
[15] = Liver, 0.5 mg i.p. daily for ten days
[16] = Liver, 5.0 mg i.p. daily for ten days
[17] = highest administered dose (5 mg), ten days

CC(C)(Sc1cc(C(C)(C)C)c(O)c(C(C)(C)C)c1)Sc1cc(C(C)(C)C)c(O)c(C(C)(C)C)c1 [probucol]
benefit in ApoE-knockout animals (ApoE-knockout mice): little or no benefit | ADAS-Cog (70 point scale) score, 3 months, Average (Alzheimer's disease [1]; [5]): 29.5 | ADAS-Cog (70 point scale) score, 6 months, Average (Alzheimer's disease [1]; [5]): 30.13 | ADAS-Cog (70 point scale) score, 3 months (Alzheimer's disease [1]; [6]): 37 and 41 and 22 and 18 and 27 and 29 and 34 and 28 | ADAS-Cog (70 point scale) score, 6 months (Alzheimer's disease [1]; [6]): 40 (2×) and 44 and 16 and 17 and 25 and 36 and 23 | CIBIC-Plus evaluation for the group as a whole (Alzheimer's disease [2]; 6 month course of treatment): slight deterioration | CIBIC Scores, 3 months, Average (Alzheimer's disease [2]; average of patients): 3.9 | CIBIC Scores, 6 months, Average (Alzheimer's disease [2]; average of patients): 5.3 | CIBIC Scores, 3 months (Alzheimer's disease [2]; [7]): 3 (3×) and 5 (2×) and 4 (4×) | CIBIC Scores, 6 months (Alzheimer's disease [2]; [7]): 5 (4×) and 6 (3×) and 4 | cortical infarct volumes compared to untreated animals (cortical infarct): less | Tau concentration in the CSF, % change (Tau protein; 1 month relative to baseline, individual AD patient): 93% and 109% and 97% and 92% and 102% and 113% and 94% and 131% and 99% | Tau concentration in the CSF, 1 month (Tau protein; individual AD patient): 188 and 1099 and 251 and 1070 and 458 and 1120 and 394 and 916 and 620 | effect on Tau levels in the CSF, as a group (Tau protein; one month relative to baseline): no effect | Change in ApoE (% baseline) (ApoE [3]; 1 month, individual AD patient): 118% baseline and 89% baseline and 87% baseline and 152% baseline and 105% baseline and 178% baseline and 136% baseline and 133% baseline | ApoE 1 month (ROD) (ApoE [3]; individual AD patient, scales of patients 1-6 differ from patients 8 and 9): 2.59 ROD and 7.14 ROD and 9.17 ROD and 0.1086 ROD and 0.0861 ROD and 8.03 ROD and 14.81 ROD and 10.27 ROD | Average Change in ApoE (% baseline) (ApoE [3]): 125% | Average Change in ApoE (% baseline) (ApoE [3]; listed as Probucol): 125% | total plasma apoB, apoA-1, apoA-II, apoC-II and apoC-III (plasma apolipoproteins; human, in vivo): lower | circulating ApoE levels (plasma apolipoproteins; probucol-treated hypercholesterolemic patients): increased | effectiveness in subjects with apoE2/2 genotype (plasma apolipoproteins; subjects with a very high physiological concentration of ApoE): totally uneffective | ApoE G/Dens (% Peak) (ApoE [4]; [8]): 70.886 % Peak | ApoE G/Dens-DD (ApoE [4]; [8]): 0.2783 | ApoE G/DxA (% Total) (ApoE [4]; [8]): 19.187 % Total | ApoE G/Dens (% Peak) (ApoE [4]; [9]): 57.610 % Peak | ApoE G/Dens-DD (ApoE [4]; [9]): 0.2262 | ApoE G/DxA (% Total) (ApoE [4]; [9]): 14.885 % Total | ApoE G/Dens (% Peak) (ApoE [4]; [10]): 45.847 % Peak | ApoE G/Dens-DD (ApoE [4]; [10]): 0.1800 | ApoE G/DxA (% Total) (ApoE [4]; [10]): 11.846 % Total | ApoE G/Dens (% Peak) (ApoE [4]; [11]): 18.571 % Peak | ApoE G/Dens-DD (ApoE [4]; [11]): 0.0729 | ApoE G/DxA (% Total) (ApoE [4]; [11]): 4.570 % Total | ApoE G/Dens (% Peak) (ApoE [4]; [12]): 14.958 % Peak | ApoE G/Dens-DD (ApoE [4]; [12]): 0.0587 | ApoE G/DxA (% Total) (ApoE [4]; [12]): 3.497 % Total | ApoE G/Dens (% Peak) (ApoE [4]; [13]): 25.469 % Peak | ApoE G/Dens-DD (ApoE [4]; [13]): 0.1000 | ApoE G/DxA (% Total) (ApoE [4]; [13]): 5.954 % Total | ApoE G/Dens (% Peak) (ApoE [4]; [14]): 21.386 % Peak | ApoE G/Dens-DD (ApoE [4]; [14]): 0.0840 | ApoE G/DxA (% Total) (ApoE [4]; [14]): 5.263 % Total | ApoE G/Dens (% Peak) (ApoE [4]; [15]): 11.315 % Peak | ApoE G/Dens-DD (ApoE [4]; [15]): 0.0444 | ApoE G/DxA (% Total) (ApoE [4]; [15]): 2.506 % Total | ApoE G/Dens (% Peak) (ApoE [4]; [16]): 8.268 % Peak | ApoE G/Dens-DD (ApoE [4]; [16]): 0.0325 | ApoE G/DxA (% Total) (ApoE [4]; [16]): 1.933 % Total | levels of ApoE in the blood, % of the control value (ApoE [4]; [17]): 60% | levels of ApoE in the liver, % of the control value (ApoE [4]; [17]): 60% | levels of ApoE in the brain, % of the control value (ApoE [4]; highest dose evaluated (5 mg), ten days): approximately 150% | [β amyloid 1-42] in the CSF, % change (β-amyloid protein (1-42); 1 month as a percentage of the baseline value): 242% and 142% (2×) and 56% and 195% and 624% and 2144% | [β amyloid 1-42] in the CSF, 1 month (β-amyloid protein (1-42); average of triplicate assays): 2.48 and 3.92 and 0.76 and 1.78 and 2.15 and 0.31 and 1.06 and 1.29
